The first assay concerns C57B16 mice on a high fat diet (DIO). Briefly: GPR120 DIO mice OGTT screening. Type of assay: in vivo, mouse. Also on record: DIO Lowering Glucose AUC (−30 to 90) @ 10 mg/kg: unit not given here. The following applies: 10 mg/kg dosed 30 min before PO glucose, change from vehicle. As for the experimental part: 18-22 week old, C57B16 mice on a high fat diet (60% HFD) for 12-16 weeks (ave. body weight ˜37-41 g) were fasted for 6 hr, with removal of food occurring at 7 am on the morning of the study. The animals were sorted into treatment groups the day before the study by body weight. Animals outside the bounds of ˜30-50 g were left out of the study. The animals had been handled and shammed a total of 5-8 days (1-3 days immediately prior to the study). Glucose (in 1 mL syringes) was drawn up the morning of the study. Test compounds were kept spinning and were only drawn into 1 ml syringes prior to study commencement. Animals were bled via tail snip to determine basal glucose levels prior to dosing of treatments. An Ascensia BREEZE Blood Glucose Monitoring System by Bayer was used for determining glucose levels.
Animals were moved into the testing room at ˜9-11 am, to yield them time to acclimate. The bleeds and dosing started at approximately 1 pm in 30-second intervals per animal. All groups were dosed 30 minutes prior to glucose administration at a dose volume of 10 ml/kg (the dose volume was calculated separately for each individual animal). Test compounds were administered at one or more of the following dosages: 0.1 mg/kg, 0.3 mg/kg, 1 mg/kg, 3 mg/kg and 10 mg/kg.
Thirty minutes after the first dose (with test compound) animals were bled again for a second baseline, or T=0, and immediately dosed with glucose (20% solution; TEKNOVA, 250 ml sterile bottle w/catalogue number G0525) via a PO injection. The exact dose volume for glucose was also calculated separately for each individual animal.
Blood glucose was measured at 15, 30, 45, 60, and 90 minutes post-glucose administration via the snipped tail. If an animal reached a value of “HI”, the upper limit of the glucometer (600 mg/dl) was substituted as the blood glucose value and the study was analyzed as normal with no exclusions. If 50% or more of any treatment group reaches a “HI” value at least once, the study was considered invalid and repeated. Glucose values were typed into an EXCEL spreadsheet where they were used to calculate glucose AUC and delta AUC post-compound and post-glucose. The glucose excursion curves and the different versions of the AUC's were graphed in GraphPad Prism 5.
Note: All statistics completed in this study were completed using the statistical software package GraphPad Prism 5. Standard procedures for analyzing data sets from screening GPR120 compounds in DIO mouse OGTT's were as listed here below. In addition to the statistics that were run using GraphPad Prism 5, Microsoft Excel was used to calculate the percent changes in AUC from vehicle groups as detailed below.
Change from −30 to 0 BSLN Glucose, Raw Glucose AUC −30 to 90 min, Delta Glucose AUC −30 to 90 min, Raw Glucose AUC 0 to 90 min, Delta Glucose AUC 0 to 90 min were analyzed using Column Statistics Analysis, with mean values used to calculate % change from the vehicle mean group, as well as mean, SEM and/or % change from vehicle, where appropriate; and using One-Way ANOVA w/a Tukey Post-Test (Comparing All Pairs of Columns) with each treatment group examined to see if it was statistically significant compared to vehicle (*=P<0.05, **=P<0.01, ***=P<0.001).
Representative compounds of the present invention were tested according to the procedure as described in Biological Example 3, with results as listed in Table 2, below. Where a compound was tested more than once, each result is listed individually.
With “3-(4-[[3-(4-ethylphenyl)-5-(trifluoromethyl)-1,2-thiazol-4-yl]methoxy]-3,5-difluorophenyl)propanoic acid [Cpd 70]”, the “DIO Lowering Glucose AUC (−30 to 90) @ 10 mg/kg” value (from here on “DIO Lowering Glucose AUC”) is given as −0.5.

As to `Cc1ccc(-c2nsc(C(F)(F)F)c2COc2c(F)cc(CCC(=O)O)cc2F)c(F)c1` [Cpd 65, 3-(3,5-difluoro-4-[[3-(2-fluoro-4-methylphenyl)-5-(trifluoromethyl)-1,2-thiazol-4-yl]methoxy]phenyl)propanoic acid], the “DIO Lowering Glucose AUC” value is −0.61.

Take `O=C(O)CCc1cc(F)c(OCc2c(-c3ccc(Cl)c(F)c3)nsc2C(F)(F)F)c(F)c1` [Cpd 67, 3-(4-((3-(4-chloro-3-fluorophenyl)-5-(trifluoromethyl)isothiazol-4-yl)methoxy)-3,5-difluorophenyl)propanoic acid]: the “DIO Lowering Glucose AUC” value is −0.78.

On to `O=C(O)CCc1cc(F)c(OCc2c(C3CCCC3)nsc2C(F)(F)F)c(F)c1` [Cpd 71, 3-(4-[[3-cyclopentyl-5-(trifluoromethyl)-1,2-thiazol-4-yl]methoxy]-3,5-difluorophenyl)propanoic acid], for which the “DIO Lowering Glucose AUC” value was −0.52.

In the case of `CCc1ccc(-c2nsc(C(F)(F)F)c2COc2ccc(CCC(=O)O)c(F)c2F)cc1` [Cpd 73, 3-(4-((3-(4-ethylphenyl)-5-(trifluoromethyl)isothiazol-4-yl)methoxy)-2,3-difluorophenyl)propanoic acid], the “DIO Lowering Glucose AUC” value is listed as −0.51.

For the compound `O=C(O)CCc1cc(F)c(OCc2c(-c3ccc(Cl)cc3F)nsc2C(F)(F)F)c(F)c1` [Cpd 74, 3-(4-((3-(4-chloro-2-fluorophenyl)-5-(trifluoromethyl)isothiazol-4-yl)methoxy)-3,5-difluorophenyl)propanoic acid], the “DIO Lowering Glucose AUC” value is recorded as −0.71.

For the compound `Cc1ccc(-c2nsc(C(F)(F)F)c2COc2c(F)cc(CC(C)C(=O)O)cc2F)c(F)c1` (stereo not shown) [Cpd 76, 3-(3,5-difluoro-4-[[3-(2-fluoro-4-methylphenyl)-5-(trifluoromethyl)-1,2-thiazol-4-yl]methoxy]phenyl)-2-methylpropanoic acid], the “DIO Lowering Glucose AUC” value is −0.8.

Staying with this assay, now noted: Mus musculus, read-out: DIO Lowering Glucose AUC (−30 to 90) @ 10 mg/kg, heading: DIO Lowering Glucose AUC @ 10 mg/kg, 10 mg/kg dosed 30 min before PO glucose, change from vehicle.
With `CCc1ccc(-c2cc(F)sc2COc2ccc(CCC(=O)O)c(C)c2C)cc1` [Cpd 1, 3-(4-[[3-(4-ethylphenyl)-5-fluorothiophen-2-yl]methoxy]-2,3-dimethylphenyl)propanoic acid], the change in vivo at 10 mg/kg is -26%.

On to `Cc1c(CCC(=O)O)ccc(OCc2sc(F)cc2-c2ccc(Cl)cc2)c1C` [Cpd 3, 3-(4-((3-(4-chlorophenyl)-5-fluorothiophen-2-yl)methoxy)-2,3-dimethylphenyl)propanoic acid], for which the change in vivo at 10 mg/kg is -49%.

A further assay concerns C57bl/6J mice. Briefly: C57bl6 mouse OGTT. Type of assay: in vivo. The following applies: 3 mg/kg dosed 30 min before glucose PO 3 g/kg. As for the experimental part:
(§1) Male, C57bl/6J Mice were ordered in at 8 weeks of age from Jackson Labs. Individual mice weighed anywhere in the range of 25-30 grams on study day. The mice were fasted, with removal of food occurring at 7 am on the morning of the study. Animals were moved into the room at 10:00 am, to give them time to acclimate. Glucose (insulin syringes) was drawn up either the night before or the morning of the study. Glucose was dosed (IP) at 1.5 g/kg at 7.5 ml/kg (20% glucose straight TEKNOVA, 250 ml sterile bottle w/catalogue number G0525). Test compounds were kept spinning and were only drawn into the syringes prior to study commencement. Animals were bled via tail snip to determine basal glucose levels prior to dosing of treatments. An Ascensia BREEZE Blood Glucose Monitoring System by Bayer (using unique 10-test disks) was used for determining glucose levels. The bleeds started at approximately 12:45 pm and dosing started, at 1-minute intervals, immediately after. All groups were dosed 30 minutes prior to glucose administration at a dose volume of 10 ml/kg (the dose volume was calculated separately for each individual animal). Thirty minutes after the first dose animals were bled again for a second baseline, or T=0, and immediately dosed with glucose via an i.p. injection. The exact dose volume for glucose was also calculated separately for each individual animal. Glucose measurements were taken at −30 min prior to compound dose, at t=0 (immediately prior to glucose dose), and at 15, 30, 45, 60, 90 min post glucose dose.
Glucose values were entered into an Excel sheet and graphed in GraphPad Prism. The following were calculated from Prism: Change from −30 to 0 BSLN Glucose, Raw Glucose AUC −30 to 90 min, Delta Glucose AUC −30 to 90 min, Raw Glucose AUC 0 to 90 min, Delta Glucose AUC 0 to 90 min.
The assay design is the same as that described above for the C57bl6 mouse IPGTT. The difference is that glucose was dosed PO at 3 g/kg, 7.5 ml/kg of 40% glucose.
Representative compounds of the present invention were tested according to the procedures as described in Biological Example 4, above with results as listed in Table 3, below. […] Where a compound was tested more than once, each result is listed individually.
In the case of “3-(4-[[3-(4-ethylphenyl)-5-(trifluoromethyl)-1,2-thiazol-4-yl]methoxy]-1-benzothiophen-7-yl)propanoic acid [Cpd 92]”, the “C57 OGTT 3 mg/kg” value is −39.

For `O=C(O)CCc1cc(F)c(OCc2c(C3CCCC3)nsc2C(F)(F)F)c(F)c1` [Cpd 71, 3-(4-[[3-cyclopentyl-5-(trifluoromethyl)-1,2-thiazol-4-yl]methoxy]-3,5-difluorophenyl)propanoic acid], the “C57 OGTT 3 mg/kg” value is −37.

With `CCc1ccc(-c2snc(Cl)c2COc2ccc(CCC(=O)O)c(C)c2C)cc1` [Cpd 85, 3-(4-[[3-chloro-5-(4-ethylphenyl)-1,2-thiazol-4-yl]methoxy]-2,3-dimethylphenyl)propanoic acid], the “C57 OGTT 3 mg/kg” value was −49.

Take `OCCCc1cc(F)c(OCc2c(-c3ccc(Cl)cc3)nsc2C(F)(F)F)c(F)c1` [Cpd 100, 3-(4-[[3-(4-chlorophenyl)-5-(trifluoromethyl)-1,2-thiazol-4-yl]methoxy]-3,5-difluorophenyl)propan-1-ol]: the “C57 OGTT 3 mg/kg” value was −39.

With `OCCCc1ccc(OCc2c(Cl)nsc2-c2ccc(Cl)cc2)c(F)c1F` [Cpd 102, 3-(4-((3-chloro-5-(4-chlorophenyl)isothiazol-4-yl)methoxy)-2,3-difluorophenyl)propan-1-ol], the “C57 OGTT 3 mg/kg” value is listed as −32.

Consider `Cc1c(CCC(=O)O)ccc(OCc2c(-c3ccc(Cl)cc3)nsc2C(F)(F)F)c1C` [Cpd 142, 3-(4-((3-(4-chlorophenyl)-5-(trifluoromethyl)isothiazol-4-yl)methoxy)-2,3-dimethylphenyl)propanoic acid], for which the “C57 OGTT 3 mg/kg” value is recorded as −49.

A further assay has as its system C57bl/6J mice. Kind of assay: GPR120 C57bl6 mouse IPGTT. It counts as in vivo. The settings on record: 10 mg/kg dosed 30 min before glucose IP 1.5 g/kg. Here is the method:
as §1, with “Glucose measurements were taken at −30 min prior to compound dose, at t=0 (immediately prior to glucose dose), and at 15, 30, 45, 60, 90 min post glucose dose.” left out
For the compound “3-(4-[[3-(4-ethylphenyl)-5-(trifluoromethyl)-1,2-thiazol-4-yl]methoxy]-1-benzothiophen-7-yl)propanoic acid [Cpd 92]”, the “C57 IPGTT 10 mg/kg” value is recorded as −41.

The values above are taken from patent US9067898B1, “Isothiazole derivatives as GPR120 agonists for the treatment of type II diabetes” (Janssen Pharmaceutica NV, priority 2014, dated 2015).
